Source: the supplement of paper PMC10307832

What was measured:
Assay in all cases: relative viability (nuclei count vs DMSO), 5 days (fraction); higher = more cells survive
Serdemetan + Linsitinib = compound: c1ccc2c(CCNc3ccc(Nc4ccncc4)cc3)c[nH]c2c1 [Serdemetan] + C[C@]1(O)C[C@@H](c2nc(-c3ccc4ccc(-c5ccccc5)nc4c3)c3c(N)nccn32)C1 [Linsitinib] (partner 1 µM)
How it was run: (§1)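 Cells from lung cancer lines were seeded into 1536-well plates and, one day later, dosed by pin tool. Treatments were either a single drug or a fixed dose of an anchor drug with five library-drug doses (not always all listed) in √10 steps. After 5 days, nuclei were stained in a one-step fixation (final 0.05% Triton X-100, 1% formaldehyde, 1 ug/ml Hoechst) and counted on 4× images, and relative viability is the treated-to-vehicle nuclei ratio, as the median of duplicate plates.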

Selisistat + Luminespib = compound: C1CC(C2=C(C1)C3=C(N2)C=CC(=C3)Cl)C(=O)N [Selisistat] + CCNC(=O)c1noc(-c2cc(C(C)C)c(O)cc2O)c1-c1ccc(CN2CCOCC2)cc1 [Luminespib] (partner 0.01 µM)
How it was run: as §1

Serdemetan + Trametinib = compound: c1ccc2c(CCNc3ccc(Nc4ccncc4)cc3)c[nH]c2c1 [Serdemetan] + CC(=O)Nc1cccc(-n2c(=O)n(C3CC3)c(=O)c3c(Nc4ccc(I)cc4F)n(C)c(=O)c(C)c32)c1 [Trametinib] (partner 0.02 µM)
How it was run: as §1

Serdemetan + Decitabine = compound: c1ccc2c(CCNc3ccc(Nc4ccncc4)cc3)c[nH]c2c1 [Serdemetan] + Nc1ncn([C@H]2C[C@H](O)[C@@H](CO)O2)c(=O)n1 [Decitabine] (partner 2 µM)
How it was run: as §1

Cell Line | relative viability (Serdemetan + Linsitinib; first compound 0.04 µM) | relative viability (Serdemetan + Linsitinib; first compound 0.1265 µM) | relative viability (Serdemetan + Linsitinib; first compound 0.4 µM) | relative viability (Serdemetan + Linsitinib; first compound 1.265 µM) | relative viability (Serdemetan + Linsitinib; first compound 4 µM) | relative viability (Selisistat + Luminespib; first compound 0.4 µM) | relative viability (Selisistat + Luminespib; first compound 1.265 µM) | relative viability (Selisistat + Luminespib; first compound 4 µM) | relative viability (Selisistat + Luminespib; first compound 12.65 µM) | relative viability (Selisistat + Luminespib; first compound 40 µM) | relative viability (Serdemetan + Trametinib; first compound 0.04 µM) | relative viability (Serdemetan + Trametinib; first compound 0.1265 µM) | relative viability (Serdemetan + Trametinib; first compound 0.4 µM) | relative viability (Serdemetan + Trametinib; first compound 1.265 µM) | relative viability (Serdemetan + Trametinib; first compound 4 µM) | relative viability (Serdemetan + Decitabine; first compound 0.04 µM) | relative viability (Serdemetan + Decitabine; first compound 0.1265 µM) | relative viability (Serdemetan + Decitabine; first compound 0.4 µM) | relative viability (Serdemetan + Decitabine; first compound 1.265 µM) | relative viability (Serdemetan + Decitabine; first compound 4 µM)
NCI-H1355 | 0.82 | 0.711 | 0.746 | 0.75 | 0.683 | 0.739 | 0.834 | 0.596 | 0.683 | 0.774 | 0.411 | 0.478 | 0.367 | 0.394 | 0.374 | 0.382 | 0.34 | 0.306 | 0.288 | 0.31
NCI-H1395 | 0.993 | 1.17 | 1.09 | 0.874 | 0.638 | 0.871 | 0.682 | 0.702 | 0.66 | 0.455 | 0.982 | 0.954 | 0.972 | 0.904 | 0.586 | 0.772 | 0.694 | 0.687 | 0.637 | 0.57
NCI-H1437 | 0.993 | 1.02 | 0.975 | 0.861 | 0.687 | 1.1 | 1.12 | 1.09 | 1.1 | 0.922 | 0.466 | 0.527 | 0.526 | 0.372 | 0.424 | 0.511 | 0.5 | 0.582 | 0.492 | 0.427
NCI-H1651 | 0.822 | 0.724 | 0.509 | 0.355 | 0.268 | 1.06 | 0.827 | 0.836 | 0.848 | 0.802 | 0.848 | 0.784 | 0.775 | 0.433 | 0.256 | 0.486 | 0.414 | 0.497 | 0.275 | 0.289
NCI-H1666 | 0.944 | 0.85 | 0.761 | 0.784 | 0.724 | 1.05 | 1 | 0.969 | 0.995 | 0.878 | 0.887 | 0.854 | 0.836 |  | 0.672 | 0.798 | 0.657 | 0.652 | 0.645 | 0.697
NCI-H1734 | 0.702 |  | 0.299 | 0.182 | 0.194 | 0.173 | 0.194 | 0.223 | 0.208 | 0.216 | 0.555 | 0.358 | 0.246 | 0.147 | 0.161 | 0.44 | 0.26 | 0.226 | 0.111 | 0.188
NCI-H1755 | 0.956 | 0.941 | 0.881 | 0.556 | 0.653 | 0.415 | 0.315 | 0.619 | 0.31 | 0.377 | 0.762 | 0.703 | 0.744 | 0.572 | 0.474 | 0.697 | 0.73 | 0.668 | 0.488 | 0.434
NCI-H1792 | 0.565 | 0.527 | 0.557 | 0.378 | 0.231 | 0.406 | 0.52 |  | 0.536 | 0.399 | 0.401 | 0.458 | 0.304 | 0.248 | 0.142 | 0.429 | 0.459 | 0.417 | 0.327 | 0.176
NCI-H1793 | 0.978 | 0.834 | 0.574 | 0.525 | 0.336 | 0.185 | 0.166 |  | 0.217 | 0.234 | 0.447 | 0.375 | 0.346 | 0.227 | 0.267 | 0.46 | 0.449 | 0.361 | 0.219 | 0.231
NCI-H1915 | 1.03 | 1.08 | 1.08 | 0.975 | 0.908 | 0.839 | 0.775 | 0.775 | 0.695 | 0.75 | 0.3 | 0.309 | 0.286 | 0.257 | 0.242 | 0.266 | 0.259 | 0.253 | 0.231 | 0.239
NCI-H1944 | 1.23 | 1.17 | 1.06 |  | 0.6 | 0.743 | 0.58 |  | 0.653 | 0.615 | 0.424 | 0.39 | 0.332 | 0.274 | 0.278 | 0.493 | 0.409 | 0.384 | 0.269 | 0.295
NCI-H1975 | 1.01 | 1.04 | 0.974 | 0.985 | 1.19 | 0.147 | 0.301 | 0.168 | 0.131 | 0.337 | 0.403 | 0.381 | 0.331 | 0.305 | 0.371 | 0.421 | 0.369 | 0.306 | 0.262 | 0.34
NCI-H1993 | 0.688 | 0.648 | 0.677 |  | 0.713 | 0.868 | 0.685 | 0.831 | 1.06 | 0.846 | 0.549 | 0.516 | 0.413 | 0.599 | 0.494 | 0.696 | 0.593 | 0.542 | 0.577 | 0.56
NCI-H2009 | 1.18 | 1.2 | 1.13 | 1 | 0.979 | 1.07 | 1.05 |  | 0.944 | 0.944 | 0.248 | 0.284 | 0.243 | 0.266 | 0.281 | 0.373 | 0.37 | 0.431 | 0.328 | 0.345
NCI-H2023 | 0.708 | 0.766 | 0.613 | 0.601 | 0.253 | 0.664 | 0.633 | 0.648 | 0.628 | 0.732 | 0.616 | 0.538 | 0.522 | 0.223 | 0.298 | 0.206 | 0.21 | 0.225 | 0.135 | 0.138
NCI-H2085 | 0.939 | 0.901 | 0.836 | 0.621 | 0.581 | 0.569 | 0.406 | 0.47 | 0.452 | 0.4 | 0.467 | 0.552 | 0.289 | 0.264 | 0.301 | 0.541 | 0.582 | 0.485 | 0.324 | 0.374
